Source: paper PMC6154694, “Absorption, Metabolic Stability, and Pharmacokinetics of Ginger Phytochemicals” (Molecules : A Journal of Synthetic Chemistry and Natural …, 2017)

Columns and labels:
[1] = Liver microsomal stability, dog; format: in vitro ADME, Beagle dog; conditions: protein 0.5 mg/mL; for remaining at 0.5 h, 10 µM: Beagle, pooled liver microsomes, pH 7.4, substrate 10 µM, n = 2, read-out: % Remaining at 30 min; for Intrinsic Clearance: dog liver microsomes, substrate 10 µM, 45 mg protein/g liver
Experimental: (§1) Pooled liver microsomes from CD1 mouse, IGS Sprague-Dawley rat, Beagle dog, and mixed gender human were used for assays. Incubations (1 mL) consisted of liver microsomes (0.5 mg/mL), NADPH (1 mM) and 100 mM sodium phosphate buffer (pH 7.4). Following pre-incubation (10 min, 37 °C), reactions were initiated by spiking ACN/DMSO (80:20) stock solutions of GE phenolics (5 μL, 10 μM). Samples (100 μL) were withdrawn at 0, 5, 10, 15, 20 and 30 min and quenched with 200 μL acetonitrile containing internal standard. Concomitant NADPH-free control incubations were prepared similarly.

[2] = pH dependent kinetic solubility in hydrochloride, citrate and phosphate buffers; format: physicochemical; conditions: 23 °C, kinetic from dmso stock, tested 10 to 100 µM, n = 2
Experimental: Calibration standards were prepared by spiking 5 μL of DMSO stock solutions into 995 μL acetonitrile/buffer (1:1) mixture. Following centrifugation (10,000 rpm, 10 min, 25 °C) the reaction samples were diluted 1:1 with acetonitrile.

[3] = Liver microsomal stability, rat; format: in vitro ADME, IGS Sprague-Dawley rat; conditions: protein 0.5 mg/mL; for remaining at 0.5 h, 10 µM: IGS Sprague-Dawley, pooled liver microsomes, pH 7.4, substrate 10 µM, n = 2, read-out: % Remaining at 30 min; for Intrinsic Clearance: rat liver microsomes, substrate 10 µM, 45 mg protein/g liver
Experimental: as §1

[4] = Solubility and stability in simulated gastric fluid (SGF); format: in vitro ADME; conditions: pH 1.2, 37 °C, n = 2
Experimental: (§2) SGF and SIF were prepared as per USP method. Briefly, SGF was prepared by adding 2 g of sodium chloride and 3.2 g of pepsin with water and pH was adjusted to 1.2 ± 0.1 using hydrochloric acid (7 mL) and volume made up to 1 L. SIF was prepared by dissolving 6.8 g monobasic potassium phosphate and 10 g pancreatin in Milli-Q water (Millipore, Billerica, MA, USA). pH was adjusted to 6.8 ± 0.1 with sodium hydroxide solution and volume was made upto 1 L. Reactions were initiated by spiking DMSO stock solutions of GE phenolics 10 μL into 1990 μL of SGF and SIF incubated at 37 °C for 10 min. Samples (200 μL) were withdrawn at 0, 15, 30, and 60 min for SGF and at 0, 30, 60, and 120 min for SIF and quenched with 200 μL acetonitrile containing internal standard.

[5] = Solubility and stability in simulated intestinal fluid (SIF); format: in vitro ADME; conditions: pH 6.8, 37 °C, n = 2
Experimental: as §2

[6] = Liver microsomal stability, human; format: in vitro ADME; conditions: protein 0.5 mg/mL; for remaining at 0.5 h, 10 µM: both sexes, pooled liver microsomes, pH 7.4, substrate 10 µM, n = 2, read-out: % Remaining at 30 min; for Intrinsic Clearance: human liver microsomes, substrate 10 µM, 45 mg protein/g liver
Experimental: as §1

[7] = 100 mM citrate buffer, aqueous buffer, pH 4, citrate buffer
[8] = 100 mM phosphate buffer, aqueous buffer, pH 7.4, phosphate buffer
[9] = simulated gastric fluid, pH 2, hydrochloride buffer

remaining at 0.5 h, 10 µM [1] | Intrinsic Clearance [1] | solubility at 2 h [2, 7] | solubility at 2 h [2, 8] | solubility at 2 h [2, 9] | remaining at 0.5 h, 10 µM [3] | Intrinsic Clearance [3] | half-life at 10 µM [4] | half-life at 10 µM [5] | remaining at 0.5 h, 10 µM [6] | Intrinsic Clearance [6] | SMILES
9% | 29.9 mL/min/g Liver | < 10 µM | < 10 µM | < 10 µM | 1% | 13.0 mL/min/g Liver | > 1 h | > 2 h | 1% | 8.4 mL/min/g Liver | CCCCC/C=C/C(=O)CCc1ccc(O)c(OC)c1 [6S, 6-shogaol]
45% | 5.6 mL/min/g Liver | < 10 µM | < 10 µM | < 10 µM | 13% | 5.4 mL/min/g Liver | > 1 h | > 2 h | 22% | 6.7 mL/min/g Liver | CCCCCCCCCC(O)CC(=O)CCc1ccc(O)c(OC)c1 (centres unmarked) [10G, 10-gingerol]
67% | 14.1 mL/min/g Liver | > 100 µM | > 100 µM | > 100 µM | 50% | 11.2 mL/min/g Liver | > 1 h | > 2 h | 56% | 6.6 mL/min/g Liver | CCCCC[C@H](O)CC(=O)CCc1ccc(O)c(OC)c1 [6G, 6-gingerol]
6% | 14.0 mL/min/g Liver | > 100 µM | > 100 µM | > 100 µM | 9% | 7.0 mL/min/g Liver | > 1 h | > 2 h | 1% | 8.5 mL/min/g Liver | CCCCCCCC(O)CC(=O)CCc1ccc(O)c(OC)c1 (centres unmarked) [8G, 8-gingerol]
